Reference: patent US20260224566A1, “Obicetrapib and Ezetimibe Combination Treatment and Fixed Dose Pharmaceutical Compositions” (NewAmsterdam Pharma B.V., priority 2023, published 2026)

Assays:
[1] = tested on: participants currently receiving high-intensity statin therapy; test: ROSE2 Phase 2b clinical trial: safety and tolerability (adverse events, disposition); format: in vivo, human
Description: The safety and tolerability profile of obicetrapib 10 mg, both in combination with ezetimibe 10 mg and as monotherapy, will be assessed by clinical laboratory assessments (chemistry and hematology), vital signs, physical examinations, and the incidence of AEs.
An AE can therefore be any unfavorable and/or unintended sign (including an abnormal laboratory finding), symptom, or disease temporally associated with the use of an investigational medicinal product, whether or not related to the investigational medicinal product. All AEs, including observed or volunteered problems, complaints, or symptoms, are to be recorded on the appropriate eCRF.
AEs, which include clinical laboratory assessment variables, will be monitored and documented from the time of first dose of study treatment until completion of Visit 5. Participants should be instructed to report any AE that they experience to the Investigator, whether or not they think the event is due to study drug. Beginning at the date of the first dose of study treatment, Investigators should make an assessment for AEs at each visit and record the event on the appropriate AE eCRF.
The Investigator will assess the severity (intensity) of each AE as mild, moderate, or severe, and will also categorize each AE as to its potential relationship to study drug using the categories of yes or no.
An AE or adverse reaction is considered serious if, in the view of either the Investigator or Sponsor, it results in any of the following outcomes: • Death; • A life-threatening AE; Note: An AE or adverse reaction is considered “life-threatening” if, in view of either the Investigator or Sponsor, its occurrence places the participant at immediate risk of death. […] However, unexpected complications and/or prolongation of hospitalization that occur during elective surgery should be recorded as AEs and assessed for seriousness. Admission to the hospital for social or situational reasons (ie, no place to stay, live too far away to come for hospital visits, respite care) will not be considered inpatient hospitalizations. • A persistent or significant disability/incapacity or substantial disruption of the ability to conduct normal life functions; • A congenital anomaly/birth defect; or • An important medical event.
The Safety Population will include all participants who receive at least 1 dose of any study drug. Treatment classification will be based on the actual treatment received. The Safety Population will be the primary population used for the safety analyses.

CETP = target: T1, CETP (Homo sapiens, UniProt P11597); test: Example 12: CETP activity and mass in ApoE*3-Leiden.CETP mice; format: in vivo, mouse
T1 construct: from tissue; host or cells: female ApoE*3-Leiden.CETP transgenic mice dosed in vivo
T1 sequence (P11597 18-493): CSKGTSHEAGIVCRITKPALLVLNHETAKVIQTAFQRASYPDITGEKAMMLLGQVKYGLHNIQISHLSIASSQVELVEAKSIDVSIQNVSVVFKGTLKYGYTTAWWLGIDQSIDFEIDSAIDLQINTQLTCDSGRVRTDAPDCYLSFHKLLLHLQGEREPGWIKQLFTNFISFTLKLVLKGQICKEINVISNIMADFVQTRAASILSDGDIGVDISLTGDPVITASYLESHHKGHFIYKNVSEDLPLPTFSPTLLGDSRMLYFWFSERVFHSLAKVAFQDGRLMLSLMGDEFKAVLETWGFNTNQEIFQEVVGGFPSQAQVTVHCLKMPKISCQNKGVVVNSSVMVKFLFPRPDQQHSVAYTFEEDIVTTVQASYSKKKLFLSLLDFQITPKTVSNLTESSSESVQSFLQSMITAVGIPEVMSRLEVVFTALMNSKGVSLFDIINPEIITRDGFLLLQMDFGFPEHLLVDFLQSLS
Description: To further elucidate the effects of the combination treatment, further studies were carried out using a standard human CETP transgenic knock-in mouse. As can be inferred from the experimental results reported herein, Obicetrapib alone and the combination with ezetimibe reduce non-HDL-C levels by increased VLDL lipolysis, increased VLDL clearance and elevated LDL receptor levels accompanied by an enhanced fecal bile acid and neutral sterol excretion.
(§1) The experimental protocol is illustrated in FIG. 71, with time (t) measured in weeks. Female ApoE*3-Leiden.CETP transgenic mice were fed a Western diet with 0.05% w/w cholesterol (equivalent to daily human intake) with (i) no drug (control), or the same diet containing (ii) obicetrapib alone (2 mg/kg/day), (iii) ezetimibe alone (1 mg/kg/day) or (iv) the combination of obicetrapib and ezetimibe. In the experiment, the effects of the treatments on, amongst other things, plasma blood lipids and fecal bile acids and sterols were determined.

[2] = tested on: ApoE*3-Leiden.CETP transgenic mice; test: Example 13: plasma cholesterol and atherosclerosis development in aortic root of ApoE*3-Leiden.CETP mice; format: in vivo, mouse
Description: The current study was carried out to evaluate the effect of obicetrapib monotherapy and a combination of obicetrapib+ezetimibe on atherosclerosis development in a translational mouse model for hyperlipidemia and atherosclerosis.
as §1, with “82,” for “71,”, “(on average 0.6” for “(1”, “ezetimibe.” for “ezetimibe. In the experiment, the effects of the treatments on, amongst other things, plasma blood lipids and fecal bile acids and sterols were determined.”

[3] = tested on: patients with mild dyslipidemia; conditions: cited from earlier work
[4] = tested on: critical physiological systems; conditions: rats, doses up to 300 mg/kg; cited from earlier work
[5] = All Randomized Participants, obicetrapib 10 mg (N = 39), obicetrapib 10 mg + ezetimibe 10 mg (N = 40)
[6] = Safety Population, 10 mg each drug
[7] = Safety Population, 10 mg each drug, last line so labelled (r41)
[8] = aortic root, 28 weeks of treatment
[9] = obicetrapib 2 mg/kg/day, ezetimibe on average 0.6 mg/kg/day in Western diet

SMILES: CCOC(=O)N1c2ccc(C(F)(F)F)cc2[C@@H](N(Cc2cc(C(F)(F)F)cc(C(F)(F)F)c2)c2ncc(OCCCC(=O)O)cn2)C[C@H]1CC [obicetrapib, {4-[(2-{[3,5-bis(trifluoromethyl)benzyl] [(2R,4S)-1-(ethoxycarbonyl)-2-ethyl-6-(trifluoromethyl)-1,2,3,4-tetrahydroquinolin-4-yl]amino}pyrimidin-5-yl)oxy]butanoic acid}]
- Completed the study (with PK), (%) [1, 5]: (94.9) %
- Completed treatment, (%) [1, 5]: (92.3) %
- Discontinued study early, (%) [1, 5]: (5.1) %
- Discontinued treatment, (%) [1, 5]: (7.7) %
- Primary reason for early study discontinuation: LOST TO FOLLOW-UP, (%) [1, 5]: (2.6) %
- Primary reason for early study discontinuation: OTHER, (%) [1, 5]: (0.0) %
- Primary reason for early study discontinuation: WITHDRAWAL BY SUBJECT, (%) [1, 5]: (0.0) %
- Primary reason for treatment discontinuation: NON-COMPLIANCE WITH STUDY DRUG, (%) [1, 5]: (2.6) %
- Primary reason for treatment discontinuation: OTHER, (%) [1, 5]: (0.0) %
- Primary reason for treatment discontinuation: WITHDRAWAL BY SUBJECT, (%) [1, 5]: (0.0) %
- Any TEAEs by maximum severity: Mild, e [1, 6]: 20
- Any TEAEs by maximum severity: Moderate, (%) [1, 6]: (7.7) %
- Any TEAEs leading to death, (%) [1, 6]: (0.0) %
- Any TEAEs leading to death, e [1, 6]: 0
- Any serious TEAEs (TESAEs), (%) [1, 6]: (5.1) %
- Any serious TEAEs (TESAEs), e [1, 6]: 2
- Any study drug-related TEAEs by maximum severity: Mild, e [1, 6]: 4
- Any study drug-related TEAEs by maximum severity: Moderate, (%) [1, 6]: (5.1) %
- Any study drug-related TEAEs by maximum severity: Severe, (%) [1, 6]: (5.1) %
- Any study drug-related TEAEs leading to discontinuation of study drug, (%) [1, 6]: (5.1) %
- Any study drug-related TEAEs, (%) [1, 6]: (2.6) %
- Any study drug-related TESAEs, (%) [1, 6]: (2.6) %
- Any study drug-related TESAEs, e [1, 6]: 1
- Any treatment-emergent AEs (TEAEs), e [1, 6]: 20
- Any TEAEs leading to discontinuation of study drug, (%) ([1]; Safety Population, 10 mg each drug, first line so labelled (r25)): (0.0) %
- Any TEAEs leading to discontinuation of study drug, (%) [1, 7]: (0.0) %
- Any TEAEs leading to discontinuation of study drug, e [1, 7]: 0
- cetp mass (CETP; data not shown): does not affect
- CETP activity, change (CETP; obicetrapib 2 mg/kg/day, ezetimibe 1 mg/kg/day in Western diet): −99%
- HDL-cholesterol ([2]; FIG. 84B): increases
- percentage of unaffected segments, increase [2, 8]: +347%
- severe lesions (types IV-V), change [2, 8]: −82%
- total atherosclerotic lesion size, change ([2]; aortic root, 28 weeks of treatment, versus control): −90%
- non-HDL-C levels, change [2, 9]: −53%
- total plasma cholesterol levels, change [2, 9]: −31%
- lesion number ([2]; versus control animals, FIG. 90B): statistically significant reductions
- HDL-C efflux capacity ([3]; TA-8995-03, 10 mg daily dose): significant increase
- additional reduction in LDL-C on top of atorvastatin 20 mg ([3]; TA-8995-03, obicetrapib 10 mg): 50.3%
- adverse effect on critical physiological systems [4]: no adverse effect
